Data set [1] concerns B. cenocepacia FCF19. Nature of the data set: Checkerboard assay with efflux pump inhibitor PaβN MC-207.110. It counts as cell-based, Burkholderia cenocepacia. The settings on record: Burkholderia cenocepacia, FCF19; read-out: MIC in the presence of MC-207.110, FCF19. How it is done: (§1) The microtiter plates were incubated at 37°C for 48 (for B. cenocepacia) or 24 h (for all the other strains) and growth was determined by the resazurin method (Martin et al., [2006]). A solution of resazurin sodium salt (Sigma Aldrich) was prepared at 0.01% in distilled water and filter-sterilized. Thirty microliter of resazurin solution were added to each well after 1 or 2 days of incubation at 37°C, and the microtiters were re-incubated at the same temperature for 4 h. The MIC was defined as the lowest concentration of the drug that prevented a change in color from blue to pink, which indicates bacterial growth. […] Three independent biological replicates were used for each MIC determination.

For data set [2], the system named is B. cenocepacia FCF22. The data set is described as above. It counts as cell-based, Burkholderia cenocepacia. The note with it: Burkholderia cenocepacia, FCF22; read-out: MIC in the presence of MC-207.110, FCF22. How it is done: as §1
The test system of another data set is P. aeruginosa. The description is as above. It counts as cell-based, Pseudomonas aeruginosa. On the procedure:
as §1

Another data set concerns P. aeruginosa PAO1. Nature of the data set: MIC, 2-fold microdilution, resazurin method. It counts as cell-based. The settings on record: Pseudomonas aeruginosa, PAO1.
A further data set concerns E. coli ATCC 25922. Nature of the data set: MIC, 2-fold microdilution, resazurin method. It counts as cell-based. The note with it: Escherichia coli, ATCC25922.
The test system of a further data set is B. cenocepacia J2315. Description: MIC, 2-fold microdilution, resazurin method. It counts as cell-based, Burkholderia cenocepacia. The settings on record: Burkholderia cenocepacia.
Data set [3] concerns B. cenocepacia FCF19. Nature of the data set: MIC, 2-fold microdilution, resazurin method. The data set is classed as cell-based, Burkholderia cenocepacia. The note with it: Burkholderia cenocepacia; clinical isolate FCF19.
For data set [4], the system named is B. cenocepacia FCF22. Description: MIC, 2-fold microdilution, resazurin method. The data set is classed as cell-based, Burkholderia cenocepacia. The settings on record: Burkholderia cenocepacia; clinical isolate FCF22.
Another data set has as its system B. cenocepacia. Description: Resazurin-based assay of BcNR reaction mixtures. The data set is classed as cell-based, Burkholderia cenocepacia. The settings on record: BcNR reactions with 1 mM C109, with or without NADPH; C109 result: in the absence of NADPH. The source says: To assess whether the resulting BcNR reduction product could inhibit B. cenocepacia growth, we carried out a resazurin-based assay.

The test system of the next data set is S. aureus ATCC 25923. Description: MIC, 2-fold microdilution, resazurin method. The data set is classed as cell-based, Staphylococcus aureus. The settings on record: Staphylococcus aureus, ATCC25923.
Data set [5] addresses Burkholderia cenocepacia purified FtsZ protein (Burkholderia cenocepacia, UniProt B4E5Y7). Nature of the data set: biochemical. The data set is classed as biochemical. The settings on record: Yes/No.
In the next data set the target is T1, PAO1-FtsZ (Pseudomonas aeruginosa, UniProt P47204).
T1 construct: His-tag of pET-28a followed by PreScission site (His-tag inferred from the vector; the site is encoded in the forward primer) (N); made in house; host or cells: E. coli BL21(DE3)
T1 sequence (P47204 2-316): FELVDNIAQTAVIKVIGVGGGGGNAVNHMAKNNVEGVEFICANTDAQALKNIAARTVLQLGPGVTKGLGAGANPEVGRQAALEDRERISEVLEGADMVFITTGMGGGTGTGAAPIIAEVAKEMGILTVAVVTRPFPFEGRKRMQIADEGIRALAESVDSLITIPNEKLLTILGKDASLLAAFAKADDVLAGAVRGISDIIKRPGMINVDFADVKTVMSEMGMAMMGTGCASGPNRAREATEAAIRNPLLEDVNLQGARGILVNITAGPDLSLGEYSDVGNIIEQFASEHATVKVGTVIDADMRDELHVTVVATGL
Description: FtsZ GTPase activity assay (kinetics and inhibition). The data set is classed as biochemical. The settings on record: read-out: IC50 toward PAO1-FtsZ. On the procedure: The gene ftsZ (BCAL3457) was amplified from B. cenocepacia FCF19 using the primers pet28presFtsZfor (5′-[…]-3′) and pet28ftsZrev (5′-[…]-3′). The gene ftsZ of P. aeruginosa was amplified from the genomic DNA using the primers ftsZPAOfor28a (5′-[…] 3′) and ftsZPAOrev28a (5′-[…]-3′). The PCR products were cloned into the pET-28a vector (Novagen) using the In-Fusion HD Cloning kit (TaKaRa), according to the manufacturer's instructions.
All the recombinant FtsZ proteins were expressed at 20°C overnight in E. coli BL21(DE3) cells, upon induction with 0.5 mM IPTG, and purified using the same protocol assessed for the wild-type B. cenocepacia FtsZ (Hogan et al., [2018]).
GTPase enzyme activity was determined using a pyruvate kinase/L-lactic dehydrogenase (PK/LDH) spectrophotometric coupled assay (Ingerman and Nunnari, [2005]). The assays were performed at 30°C, in a reaction mixture containing […] Hepes pH 7.5, 5 mM MgCl2, 5 mM KCl, 10 U PK/LDH, 0.25 mM NADH, 0.25 mM PEP, and 5–10 μM FtsZ, and initiated by the addition of 0.5 mM GTP. Alternatively, GTPase activity was determined by measuring the release of phosphate using the malachite green assay (Baykov et al., [1988]).
Steady-state kinetic analysis was performed by assaying the activity at different GTP concentrations and parameters determined by fitting the data to the Michaelis-Menten equation using Origin 8 software. […]

The subject of data set [6] is CF bronchial epithelial (CFBE41o-) cell line. On the set-up: method as in Hogan et al., 2018; Costabile et al., 2020. The settings on record: CFBE41o- cells; ref Hogan et al., 2018; Costabile et al., 2020; cited from earlier work.

The structures appear in SMILES notation. Converted amounts (≈) assume the structure as drawn. Read-outs that look alike come from different tables or passages of the source.

The values that follow come from PMC7154053, “Chemical, Metabolic, and Cellular Characterization of a FtsZ Inhibitor Effective Against Burkholderia cenocepacia” (Frontiers in Microbiology, 2020).

Chain of Burkholderia cenocepacia purified FtsZ protein (B4E5Y7 entry or part of it): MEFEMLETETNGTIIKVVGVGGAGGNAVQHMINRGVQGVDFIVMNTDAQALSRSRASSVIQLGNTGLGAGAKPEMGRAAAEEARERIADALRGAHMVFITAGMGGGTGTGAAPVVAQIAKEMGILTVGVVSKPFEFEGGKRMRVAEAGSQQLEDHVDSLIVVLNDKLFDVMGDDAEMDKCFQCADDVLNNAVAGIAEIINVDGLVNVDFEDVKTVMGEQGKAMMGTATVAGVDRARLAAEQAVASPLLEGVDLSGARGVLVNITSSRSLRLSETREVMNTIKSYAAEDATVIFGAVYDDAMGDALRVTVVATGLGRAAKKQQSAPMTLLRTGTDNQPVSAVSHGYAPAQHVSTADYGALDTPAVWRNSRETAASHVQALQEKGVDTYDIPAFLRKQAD

Regarding `COC(=O)CSc1ccc2nsnc2c1[N+](=O)[O-]` [C109, methyl [(4-nitro-2,1,3-benzothiadiazol-5-yl)thio]acetate], the MIC with B. cenocepacia FCF19 [1] is 8 µg/mL; in the data set on B. cenocepacia FCF22 [2] it was 16 µg/mL; in the data set on P. aeruginosa (Pseudomonas aeruginosa, read-out: MIC in the presence of MC-207.110, P. aeruginosa), 1 µg/mL; with P. aeruginosa PAO1 (LB, 24 h, read-out: MIC P. aeruginosa PAO1) it was 128 µg/mL (≈ 449 µM); with P. aeruginosa PAO1 (Supplementary Table 1, read-out: MIC (µg/ml) P. aeruginosa PAO1), 128 µg/mL (≈ 449 µM); in the data set with E. coli ATCC 25922 (LB, 24 h, read-out: MIC E. coli 25922) it was 8 µg/mL (≈ 28 µM). Moreover, the MIC in the data set with E. coli ATCC 25922 (Supplementary Table 1, read-out: MIC (µg/ml) E. coli 25922) was 8 µg/mL (≈ 28 µM); with B. cenocepacia J2315 (J2315, read-out: MIC (µg/ml) B. cenocepacia J2315), 8 µg/mL (≈ 28 µM); with B. cenocepacia J2315 (J2315, LB, 48 h, read-out: MIC B. cenocepacia J2315), 8 µg/mL (≈ 28 µM); in the data set with B. cenocepacia FCF19 [3], 128 µg/mL (≈ 449 µM); in the data set with B. cenocepacia FCF22 [4], 256 µg/mL (≈ 897 µM); in the data set with S. aureus ATCC 25923 (LB, 24 h, read-out: MIC S. aureus 25923), 4 µg/mL (≈ 14 µM). Also, the MIC with S. aureus ATCC 25923 (Supplementary Table 1, read-out: MIC (µg/ml) S. aureus 25923) was determined as 4 µg/mL (≈ 14 µM). Besides, the “effect of combination with MC-207.110” value in the data set on P. aeruginosa (checkerboard, P. aeruginosa) is listed as “synergistic effect”. Also, the “activity against B. cenocepacia growth” value in the data set with B. cenocepacia is on record as “still active”. In addition, the “Inhibition of Bc FtsZ At 100 μM” value in data set [5] (100 μM compound) is “Yes”. In data set [5] (100 µM, Supplementary Table 1), the “Inhibits B. cenocepacia FtsZ GTPase at 100µM?” value is on record as “Yes”. Also, the IC50 on PAO1-FtsZ came out at 3.5 ± 1.9 µM. Moreover, the “toxic concentration at 50% (TC50)” value in data set [6] is recorded as “about 75 μM”.
